Measured values taken from BigSolDB 2.1.

O=C(O)CCCCCCCCCCC(=O)O
solubility (mole fraction)
Settings | 288.15 K | 293.15 K | 298.15 K | 303.15 K | 308.15 K | 313.15 K | 318.15 K | 323.15 K | 328.15 K
in acetic acid | 0.00316 | 0.00434 | 0.00581 | 0.00776 | 0.0103 | 0.0136 | 0.0179 | 0.0235 | 0.0306
in acetone | 0.00286 | 0.00402 | 0.00543 | 0.00757 | 0.00995 | 0.0133 | 0.0178 | 0.0238 | 0.0318
in ethanol | 0.00793 | 0.0105 | 0.0138 | 0.0181 | 0.0236 | 0.0305 | 0.0394 | 0.0506 | 0.0648
in ethyl acetate | 0.00115 | 0.00165 | 0.00231 | 0.00327 | 0.00461 | 0.00638 | 0.00879 | 0.0121 | 0.0165
